Laboratory results from patent publication US11911386B2, “Methods of treating B-cell proliferative disorder” (BeiGene Switzerland GmbH, priority 2022, dated 2024).
Where “and” joins values, the source holds several entries; their conditions need not be identical. Equal entries are not always repeated. Where two headings read alike, the source gives them in different places.

Legend:
[1] = Phase 2 (NCT04116437): recurrence and change in severity of ibrutinib/acalabrutinib intolerance events on zanubrutinib; type: in vivo, human
Text: The primary endpoints were the recurrence and the change in severity of ibrutinib and acalabrutinib intolerance events compared with corresponding treatment-emergent adverse events within each patient. In this document, the term “adverse event” refers to a “treatment-emergent adverse event” unless otherwise stated. Hereafter, the full “treatment-emergent adverse event” was not used.
Intolerance was defined as an unacceptable toxicity such that treatment should be discontinued per investigator opinion despite optimal supportive care.
If while on zanubrutinib a patient experienced the same adverse event that led to their intolerance to ibrutinib, the patient was said to experience a recurrence of an ibrutinib intolerant event. […] Otherwise, the severity was said to be the same. For acalabrutinib intolerant events, recurrence and change in severity were defined similarly.
Primary endpoint was the recurrence and change in severity of intolerance events per protocol.
The study design comprised two cohorts. […] Patients were not allowed to switch schedule during the study.

P-glycoprotein = molecular target: T1, P-glycoprotein (Homo sapiens, UniProt P08183); conditions: repeated dosing of zanubrutinib; cited from earlier work
T1 construct: endogenous in cells; host or cells: human subjects in vivo (clinical study)

[2] = Phase 1 DDI study: treatment-emergent adverse events; type: in vivo, human
Procedure: Safety was assessed by monitoring and recording of adverse events (AEs), serious adverse events (SAEs), clinical laboratory tests, physical examinations, and vital signs. […] A TEAE was defined as an AE that started during or after the first dose or started before the first dose and increased in severity after the first dose. AEs were classified based on MedDRA Version 24.0.
Safety and tolerability were assessed, when applicable, by incidence, severity, change from baseline values, and abnormal values for all relevant parameters such as AEs, laboratory parameters, vital signs, and physical examination.

[3] = Phase 1 DDI study: single-dose zanubrutinib PK alone and with steady-state rifabutin (NCT04470908); type: in vivo, human; conditions: for half-life: arithmetic mean (SD)
Text: This study was designed, conducted, and monitored according to sponsor procedures, and complied with the ethical principles of Good Clinical Practice, International Council for Harmonisation of Technical Requirements for Pharmaceuticals for Human Use, the Declaration of Helsinki, and local regulatory requirements. All volunteers provided written, informed consent before study entry. Midlands Independent Review Board (MLIRB (now WCG IRB), Overland Park, Kansas) reviewed and approved the protocol at the respective study center.
Volunteers were screened for eligibility during the screening period (from day −28 through day −2). Those who met all the inclusion criteria and none of the exclusion criteria were admitted into the clinical research unit (CRU) on day −1 and confined to the CRU until discharge on day 13. […] Volunteers were discharged on day 13 after satisfactory completion of study-related procedures.
A single dose of rifabutin (300 mg) was given orally as 2×150 mg capsules with food on days 3-10 and in the fasted state on day 11.
Noncompartmental analysis was conducted using Phoenix® WinNonlin™ version 8.1 (Certara USA, Inc., Princeton, New Jersey, USA).
Protein precipitation was utilized to extract the analyte and internal standard from human plasma containing dipotassium ethylenediaminetetraacetic acid (K2EDTA) as an anticoagulant.
The geometric least squares mean (GLSM) and their ratios were obtained by taking the exponential of the corresponding estimates of LSM and their differences on the natural logarithm scale, where ratio=test/reference. Within-subject CV was calculated as 100×square root[exp(mean square error from the analysis model)−1].

[4] = 320 mg zanubrutinib + 300 mg rifabutin (test)
[5] = 320 mg zanubrutinib + 300 mg rifabutin, median (min-max)

T1 sequence (P08183 whole entry): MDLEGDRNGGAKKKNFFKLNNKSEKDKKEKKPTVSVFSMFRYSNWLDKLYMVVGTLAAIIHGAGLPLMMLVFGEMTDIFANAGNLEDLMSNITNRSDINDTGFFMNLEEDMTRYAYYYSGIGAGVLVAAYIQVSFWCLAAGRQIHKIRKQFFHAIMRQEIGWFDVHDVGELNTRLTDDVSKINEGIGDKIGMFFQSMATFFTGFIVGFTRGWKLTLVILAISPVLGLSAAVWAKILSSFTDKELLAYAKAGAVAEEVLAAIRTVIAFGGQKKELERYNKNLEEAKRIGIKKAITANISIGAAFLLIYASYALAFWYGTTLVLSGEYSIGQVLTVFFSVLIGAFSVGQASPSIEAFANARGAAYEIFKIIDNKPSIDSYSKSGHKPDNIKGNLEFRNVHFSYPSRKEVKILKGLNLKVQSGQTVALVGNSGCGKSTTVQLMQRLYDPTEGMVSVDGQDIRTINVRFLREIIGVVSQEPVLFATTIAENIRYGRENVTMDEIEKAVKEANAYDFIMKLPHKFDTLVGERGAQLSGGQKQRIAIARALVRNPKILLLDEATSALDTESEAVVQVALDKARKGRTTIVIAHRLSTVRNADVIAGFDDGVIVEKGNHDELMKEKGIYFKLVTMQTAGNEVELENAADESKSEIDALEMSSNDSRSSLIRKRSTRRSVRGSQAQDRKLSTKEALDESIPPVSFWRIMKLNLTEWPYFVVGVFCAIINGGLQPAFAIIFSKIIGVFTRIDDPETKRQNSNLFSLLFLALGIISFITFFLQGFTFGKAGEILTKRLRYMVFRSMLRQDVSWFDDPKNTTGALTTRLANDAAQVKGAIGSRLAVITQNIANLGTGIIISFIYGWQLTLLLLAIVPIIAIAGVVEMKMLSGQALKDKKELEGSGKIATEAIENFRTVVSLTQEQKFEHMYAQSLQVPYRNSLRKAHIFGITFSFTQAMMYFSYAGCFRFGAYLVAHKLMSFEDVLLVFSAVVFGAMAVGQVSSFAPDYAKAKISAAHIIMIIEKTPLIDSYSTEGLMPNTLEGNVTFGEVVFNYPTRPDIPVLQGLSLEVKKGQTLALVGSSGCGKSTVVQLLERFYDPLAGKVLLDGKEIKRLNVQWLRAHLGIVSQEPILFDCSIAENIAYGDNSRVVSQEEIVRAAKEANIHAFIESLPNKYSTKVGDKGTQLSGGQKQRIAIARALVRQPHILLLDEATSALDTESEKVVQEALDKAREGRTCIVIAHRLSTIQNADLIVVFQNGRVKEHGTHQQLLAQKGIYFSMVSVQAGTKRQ

## C=CC(=O)N1CCC([C@@H]2CCNc3c(C(N)=O)c(-c4ccc(Oc5ccccc5)cc4)nn32)CC1 [zanubrutinib, (S)-7-(1-acryloylpiperidin-4-yl)-2-(4-phenoxyphenyl)-4,5,6,7-tetrahydropyrazolo[1,5-a]pyrimidine-3-carboxamide]
[1]; 3 patients
  Patients with acalabrutinib-intolerance event recurrence who discontinued zanubrutinib: 66.7%
[1]; 3 recurring events
  Recurring acalabrutinib-intolerance events at lower severity: 33.3% and 33.0%
  Recurring acalabrutinib-intolerance events at same severity: 66.6% and 66.7%
[1]; 4 grade 3 events
  Grade 3 acalabrutinib-intolerance events that recurred: 25.0%
[1]; 10 patients
  Patients without recurrence of acalabrutinib-intolerance events: 70.0%
[1]; 13 events
  Recurring grade 3 ibrutinib-intolerance events at lower severity: 92.3%
  Recurring grade 3 ibrutinib-intolerance events at same severity: 7.7%
[1]; 18 events
  Acalabrutinib-intolerance events that did not recur: 83.3%
  Acalabrutinib-intolerance events that recurred: arthralgia: 5.6%
  Acalabrutinib-intolerance events that recurred: myalgia: 11.1%
[1]; 25 patients
  Patients with recurrent ibrutinib-intolerance event who discontinued zanubrutinib: 24.0%
[1]; 34 recurring events
  Recurring ibrutinib-intolerance events at lower severity: 79.4%
  Recurring ibrutinib-intolerance events at same severity: 20.6%
[1]; 38 grade 3 events
  Grade 3 ibrutinib-intolerance events that recurred: 34.2%
[1]; 62 patients
  Patients without recurrence of ibrutinib-intolerance event: 59.7%
[1]; 115 events
  Ibrutinib-intolerance events that did not recur: 70.4%
[1]; 141 intolerance events
  Intolerance events that did not recur: 68.1%
[1]; all patients
  Patients with reoccurrence of previously intolerant adverse event(s): 44.4%
[1]; all patients (clinical study report cut-off)
  Patients without any recurrence of intolerance event(s): 56.6%
[1]; in vivo
  Median time to first recurrence of ibrutinib-intolerance event: 61 days
P-glycoprotein
  Mean increase of digoxin AUC0-t: 11%
  Mean increase of digoxin Cmax: 34%
[2]; N = 13
  General disorders and administration site conditions TEAE: 1 (7.7) n (%)
  Overall TEAEs: 1 (7.7) n (%)
  Vessel puncture site hematoma TEAE: 1 (7.7) n (%)
[2]; single 320 mg dose alone or with 300 mg rifabutin, healthy volunteers
  Tolerability: well tolerated
[3]; 320 mg zanubrutinib (reference)
  AUC0-t GLSM: 2700 ng·h/mL
[3]; [4]
  AUC0-t GLSM: 1530 ng·h/mL
  Cmax GLSM: 253 ng/mL
[3]; [5]
  Tlast: 36.0 (24.0-36.0) [13] h
  Tmax: 2.0 h
[3]; 320 mg zanubrutinib alone, median (min-max)
  Tlast: 36.0 (24.0-36.0) [13] h
[3]; human, plasma, oral, 320 mg
  AUC(0-t): 2700 ng·h/mL
  Cmax: 489 ng/mL
  Vd/F: 1080 L
[3]; human, plasma, oral, 320 mg zanubrutinib + 300 mg rifabutin (test), read-out: AUC0-∞ GLSM
  AUC(0-inf): 1560 ng·h/mL
[3]; human, plasma, oral, 320 mg zanubrutinib + 300 mg rifabutin
  half-life: 7 h
[3]; human, plasma, oral, 320 mg zanubrutinib + 300 mg rifabutin, geometric mean (CV), read-out: AUC0-∞
  AUC(0-inf): 1590 ng·h/mL
[3]; human, plasma, oral, 320 mg, 320 mg zanubrutinib (reference), read-out: AUC0-∞ GLSM
  AUC(0-inf): 2780 ng·h/mL
[3]; human, plasma, oral, 320 mg, 320 mg zanubrutinib alone
  half-life: 7.2 h
[3]; human, plasma, oral, 320 mg, 320 mg zanubrutinib alone, geometric mean (CV), read-out: AUC0-∞
  AUC(0-inf): 2780 ng·h/mL
[3]; human, plasma, oral, 320 mg, read-out: Tmax
  Tmax: 1.5 h
[3]; in vivo
  AUC0-t within-subject CV: 10.7%
  AUC0-∞ within-subject CV: 7.0%
  Cmax within-subject CV: 23.2%
[3]; with moderate CYP3A inducer, e.g. rifabutin
  Reduction in zanubrutinib exposure: approximately 2 fold
[3]; with vs without rifabutin
  GMR (exposure): 57%
